# Experimental data from publication PMC7898037, “Improving mitochondria and ER stability helps eliminate upper motor neuron degeneration that occurs due to mSOD1 toxicity and TDP‐43 pathology” (Clinical and Translational Medicine, 2021).
# What was measured:
# [1] = system: UMN apical dendrites of prpTDP‐43^A315T‐UeGFP mice; assay: UMN apical dendrites with vacuoles, prpTDP‐43^A315T‐UeGFP mice; type: in vivo
# Procedure: (§1) hSOD1^G93A‐UeGFP, prpTDP‐43^A315T‐UeGFP and WT‐UeGFP mice were weighed and the required NU‐9 dose per weight was calculated (20 or 100 mg/kg), which was administered once daily by oral gavage, starting at postnatal day (P)60 and continuing until P120. Animals from the untreated group received the vehicle (NMP and olive oil) only. For oral administration purposes, 20 ga × 38 mm plastic feeding tubes were used (Instech Laboratories, Inc). The gavage tip was inserted into the mouth directly over the tongue and into the pharynx. While observing the swallowing reflex, the tip was safely and smoothly slid into the esophagus. Once the administration was completed, the gavage tip was pulled straight out.
# Mice were deeply anesthetized using ketamine (90 mg/kg) with xylazine (10 mg/kg), and transcardially perfused with 4% PFA in PBS. The brains were removed intact and postfixed (4% PFA, overnight) and stored in PBS with sodium azide (0.01%) at 4°C. Sections were cut in a coronal (50 µm) plane using a vibratome (Leica) and processed for immunocytochemical analyses.
# The antibodies used are as follows: anti‐GFP (1:1000, Invitrogen; or 1:1000, Abcam) and anti‐misfolded SOD1 (B8H10, 1:250, Médimabs). Briefly, sections were treated with blocking solution (PBS, 0.05% BSA, 2% FBS, 1% Triton X‐100, and 0.1% saponin) for 30 min at room temperature and incubated with primary antibody diluted in blocking solution overnight at 4°C. Appropriate secondary fluorescent antibodies (1:500, AlexaFluor‐conjugated, Invitrogen) were added to the blocking solution at room temperature for 2 h in the dark.
# [2] = system: UMNs in the motor cortex of hSOD1^G93A‐UeGFP mice; assay: UMN quantification in motor cortex, hSOD1^G93A‐UeGFP mice; type: in vivo; conditions: for Mean, Fig. 5E (UMN quantification in motor cortex): hSOD1G93A-UeGFP mice; for average number of UMNs per section in the motor cortex: hSOD1^G93A‐UeGFP mice
# Procedure: as §1
# (§2) Since UMNs are genetically labeled with eGFP expression in the motor cortex of WT‐UeGFP, hSOD1^G93A‐UeGFP, and prpTDP‐43^A315T‐UeGFP mice, UMNs were identified based on the GFP expression. Quantitative analyses were performed on three matched rostrocaudal sections spanning the motor cortex. Three images per subject were taken to capture a 4× objective filed that encompass layer 5 of the motor cortex. An inverted epifluorescent Eclipse TE2000‐E microscope (Nikon) with the same exposure time and intensity was used. UMNs were counted only if their soma and apical dendrite were both visualized in the same 50‐µm thick section. Images were analyzed in ImageJ (NIH) using the Find maxima processing command to determine the local maxima within a predetermined region of interest that circumscribes the layer 5 of the motor cortex. A universal noise tolerance, which ignores the local maxima corresponding to background and autofluorescence, was applied to all images.
# [3] = system: UMNs in the motor cortex of prpTDP‐43^A315T‐UeGFP mice; assay: UMN quantification in motor cortex, prpTDP‐43^A315T‐UeGFP mice; type: in vivo
# Procedure: as §1, §2
# [4] = system: prpTDP‐43^A315T‐UeGFP mice; assay: Rotarod test, prpTDP‐43^A315T‐UeGFP mice; type: in vivo; conditions: for Rotarod, Predicted (LS) mean: prpTDP-43A315T-UeGFP (NU-9 100 mg/kg/day); for Rotarod, Average: prpTDP-43A315T-UeGFP, NU-9 100 mg/kg/day po
# Procedure: as §1
# Behavior data were collected from hSOD1^G93A‐UeGFP and WT‐UeGFP mice (starting at P60 and every 7 days until P116) and from prpTDP‐43^A315T‐UeGFP mice (at P60, P90, and P120) with the following number of mice for each group: WT‐UeGFP vehicle (n = 10), hSOD1^G93A‐UeGFP vehicle (n = 6), WT‐UeGFP 20 mg/kg/day NU‐9 (n = 5), hSOD1^G93A‐UeGFP 20 mg/kg/day NU‐9 (n = 7), WT‐UeGFP 100 mg/kg/day NU‐9 (n = 11), hSOD1^G93A‐UeGFP 100 mg/kg/day NU‐9 (n = 9), prpTDP‐43^A315T‐UeGFP untreated (n ≥ 3), and prpTDP‐43^A315T‐UeGFP 100 mg/kg/day NU‐9 (n = 4) (Table S3).
# Mice were placed on a rotating rod that accelerates linearly from 4 to 40 rpm (Rotarod, Ugo Basile), and the average time spent on the rotating rod for three consecutive trials was calculated for each mouse. Mice were allowed to run for a maximum of 5 min with a 5 min rest period between each run, and the latency to fall was recorded for three consecutive trials. The average of the three trials was taken as the data point for each mouse at the age tested, and the performance of different groups are reported as the mean ± SEM.
# [5] = system: SOD1^G93A‐expressing PC12 cell; conditions: in vitro potency; read-out: EC50 (protein aggregation/toxicity); cited from earlier work
# [6] = cited from earlier work
# Caco‐2 = system: Caco‐2; parameters: method as in PMID 22189273, PMID 22837812; conditions: cited from earlier work
# [7] = parameters: method as in PMID 22189273, PMID 22837812; conditions: cited from earlier work
# cortical neurons = system: cortical neurons; parameters: method as in earlier work; conditions: ref 53 (compound 2), ref 54 (NU‐9); cited from earlier work
# [8] = prpTDP43A315T-UeGFP untreated minus NU-9 100 mg/kg/day, Tukey's multiple comparisons test
# [9] = prpTDP-43A315T-UeGFP mice, NU-9 100 mg/kg/day
# [10] = prpTDP‐43^A315T‐UeGFP mice, 100 mg/kg/day oral gavage P60–P120
smiles,measurement,setting,value
C[C@H](Oc1cc(C(F)(F)F)cc(C(F)(F)F)c1)C1CC(=O)CC(=O)C1 [NU‐9],"Mean Diff., Fig. 7E, GT Untreated vs. GT NU-9 (100)",[1]; [8],70.28
same,"Mean, Fig. 7E (UMN apical dendrites with vacuoles)",[1]; [9],10.93
same,percentage of UMNs with vacuolated primary apical dendrites,[1]; [10],11% ± 1%
same,"Mean, Fig. 5E (UMN quantification in motor cortex)",[2]; NU-9 20 mg/kg/day,21.06
same,"Mean, Fig. 5E (UMN quantification in motor cortex)",[2]; NU-9 100 mg/kg/day,46.43
same,"Mean Diff., Fig. 5E, GS Vehicle vs. GS NU-9 (20)","[2]; hSOD1G93A-UeGFP vehicle minus NU-9 20 mg/kg/day, Tukey's multiple comparisons test",-16.12
same,"Mean Diff., Fig. 5E, GS Vehicle vs. GS NU-9 (100)","[2]; hSOD1G93A-UeGFP vehicle minus NU-9 100 mg/kg/day, Tukey's multiple comparisons test",-41.49
same,average number of UMNs per section in the motor cortex,[2]; 20 mg/kg/day oral gavage P60–P120,21 ± 5 UMN
same,average number of UMNs per section in the motor cortex,[2]; 100 mg/kg/day oral gavage P60–P120,46 ± 3 UMN
same,"Mean Diff., Fig. 7H, GT Untreated vs. GT NU-9 (100)",[3]; [8],-22.58
same,"Mean, Fig. 7H (UMN quantification in motor cortex)",[3]; [9],59.17
same,average number of UMNs in the motor cortex,[3]; [10],59 ± 3 UMNs
same,"Rotarod, Predicted (LS) mean","[4]; P60, mixed-effects analysis",260
same,"Rotarod, Predicted (LS) mean","[4]; P90, mixed-effects analysis",216
same,"Rotarod, Predicted (LS) mean","[4]; P120, mixed-effects analysis",165.8
same,"Rotarod, Average",[4]; P60,267.889
same,"Rotarod, Average",[4]; P90,232.556
same,"Rotarod, Average",[4]; P120,178.444
same,"rotarod test, latency to fall","[4]; prpTDP‐43^A315T‐UeGFP mice, 100 mg/kg/day, after 30 days of treatment",232.6 ± 18.1 s
same,EC50,[5],300 nM
same,plasma stability t 1/2,[6],> 2 h
same,Caco‐2 A→B,Caco‐2,24.1 × 10^–6 cm/s
same,Caco‐2 B→A,Caco‐2,1.5 × 10^–6 cm/s
same,Caco‐2 Efflux ratio,Caco‐2,0.06
same,PAMPA‐BBB P e,[7],8.11 × 10^–6 cm/s
same,PAMPA‐BBB classification,[7],CNS+
same,penetration into neurons,cortical neurons,penetrated cortical neurons
